Measurements as given in ChEMBL document CHEMBL1201862, “PubChem BioAssay data set” (2004).
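Where inhibition never reached the appropriate level, the endpoint shown equals the highest concentration tested. Otherwise, values were interpolated linearly from a five-concentration, 48-hour dose response in 96-well plates. Abbreviation: GI50, concentration required for 50% inhibition of growth.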 The source made the active and inactive calls. No stated cut-off is given here; in the data, active = GI50 up to about 1.1 µM and inactive = higher.

Assays:
Test in all cases: NCI anticancer screen, dose series, 48 h
SNB-19 = system: SNB-19
NCI-H522 = system: NCI-H522
DLD-1 = system: DLD-1
UO-31 = system: UO-31
SN12C = system: SN12C
SNB-75 = system: SNB-75
UACC-257 = system: UACC-257
DMS-273 = system: DMS-273
M14 = system: M14
HOP-18 = system: HOP-18
SR = system: SR
U-251 = system: U-251
SK-MEL-2 = system: SK-MEL-2
SF-295 = system: SF-295
HOP-62 = system: HOP-62
A498 = system: A498
COLO 205 = system: COLO 205
HCT-15 = system: HCT-15
IGROV-1 = system: IGROV-1
A549 = system: A549
NCI-H460 = system: NCI-H460
HT-29 = system: HT-29
M19-MEL = system: M19-MEL
KM-20L2 = system: KM-20L2
EKVX = system: EKVX
SF-539 = system: SF-539
NCI-H23 = system: NCI-H23
HL-60 = system: HL-60
LXFL 529 = system: LXFL 529
CAKI-1 = system: CAKI-1
SF-268 = system: SF-268
SK-MEL-28 = system: SK-MEL-28
NCI-H226 = system: NCI-H226
Malme-3M = system: Malme-3M
KM12 = system: KM12
SK-OV-3 = system: SK-OV-3
786-0 = system: 786-0
SNB-78 = system: SNB-78
K562 = system: K562
HCT-116 = system: HCT-116
RXF 631 = system: RXF 631
OVCAR-8 = system: OVCAR-8
DMS-114 = system: DMS-114
HOP-92 = system: HOP-92
MOLT-4 = system: MOLT-4
RPMI-8226 = system: RPMI-8226
ACHN = system: ACHN
SW-620 = system: SW-620
SK-MEL-5 = system: SK-MEL-5
OVCAR-3 = system: OVCAR-3
OVCAR-5 = system: OVCAR-5
OVCAR-4 = system: OVCAR-4
CCRF-CEM = system: CCRF-CEM
HCC 2998 = system: HCC 2998
UACC-62 = system: UACC-62
LOX IMVI = system: LOX IMVI
RXF 393 = system: RXF 393
TK-10 = system: TK-10

Compound: CCNC(=O)COc1ccc(Cl)cc1Cl
- GI50 (SNB-19): > 100 µM (inactive)
- GI50 (NCI-H522): > 100 µM (inactive)
- GI50 (DLD-1): > 100 µM (inactive)
- GI50 (UO-31): > 100 µM (inactive)
- GI50 (SN12C): > 100 µM (inactive)
- GI50 (SNB-75): > 100 µM (inactive)
- GI50 (UACC-257): > 100 µM (inactive)
- GI50 (DMS-273): > 100 µM (inactive)
- GI50 (M14): > 100 µM (inactive)
- GI50 (HOP-18): > 100 µM (inactive)
- GI50 (SR): > 100 µM (inactive)
- GI50 (U-251): > 100 µM (inactive)
- GI50 (SK-MEL-2): > 100 µM (inactive)
- GI50 (SF-295): > 100 µM (inactive)
- GI50 (HOP-62): > 100 µM (inactive)
- GI50 (A498): > 100 µM (inactive)
- GI50 (COLO 205): > 100 µM (inactive)
- GI50 (HCT-15): > 100 µM
- GI50 (IGROV-1): > 100 µM (inactive)
- GI50 (A549): > 100 µM (inactive)
- GI50 (NCI-H460): > 100 µM (inactive)
- GI50 (HT-29): > 100 µM (inactive)
- GI50 (M19-MEL): > 100 µM (inactive)
- GI50 (KM-20L2): > 100 µM (inactive)
- GI50 (EKVX): 55.7 µM (inactive)
- GI50 (SF-539): > 100 µM (inactive)
- GI50 (NCI-H23): > 100 µM (inactive)
- GI50 (HL-60): > 100 µM (inactive)
- GI50 (LXFL 529): > 100 µM (inactive)
- GI50 (CAKI-1): > 100 µM (inactive)
- GI50 (SF-268): > 100 µM (inactive)
- GI50 (SK-MEL-28): > 100 µM (inactive)
- GI50 (NCI-H226): > 100 µM (inactive)
- GI50 (Malme-3M): > 100 µM (inactive)
- GI50 (KM12): > 100 µM (inactive)
- GI50 (SK-OV-3): > 100 µM (inactive)
- GI50 (786-0): > 100 µM (inactive)
- GI50 (SNB-78): > 100 µM (inactive)
- GI50 (K562): > 100 µM (inactive)
- GI50 (HCT-116): > 100 µM (inactive)
- GI50 (RXF 631): > 100 µM (inactive)
- GI50 (OVCAR-8): > 100 µM (inactive)
- GI50 (DMS-114): > 100 µM (inactive)
- GI50 (HOP-92): > 100 µM (inactive)
- GI50 (MOLT-4): > 100 µM (inactive)
- GI50 (RPMI-8226): > 100 µM (inactive)
- GI50 (ACHN): > 100 µM (inactive)
- GI50 (SW-620): > 100 µM (inactive)
- GI50 (SK-MEL-5): > 100 µM (inactive)
- GI50 (OVCAR-3): > 100 µM (inactive)
- GI50 (OVCAR-5): > 100 µM (inactive)

Compound: O=C(C=P(c1ccccc1)(c1ccccc1)c1ccccc1)CC(=S)CC(=O)C=P(c1ccccc1)(c1ccccc1)c1ccccc1
- GI50 (SNB-19): 4.33 µM (inactive)
- GI50 (OVCAR-4): 7.5 µM (inactive)
- GI50 (NCI-H522): 2.74 µM (inactive)
- GI50 (DLD-1): 4.58 µM (inactive)
- GI50 (UO-31): 29.3 µM (inactive)
- GI50 (SN12C): 3.39 µM (inactive)
- GI50 (UACC-257): 3.15 µM (inactive)
- GI50 (DMS-273): 2.88 µM (inactive)
- GI50 (CCRF-CEM): 3.24 µM (inactive)
- GI50 (HCC 2998): 3.85 µM (inactive)
- GI50 (M14): 4.12 µM (inactive)
- GI50 (HOP-18): 2.59 µM (inactive)
- GI50 (U-251): 2.29 µM (inactive)
- GI50 (SF-295): 3.16 µM (inactive)
- GI50 (HOP-62): 8.04 µM (inactive)
- GI50 (A498): 4.14 µM (inactive)
- GI50 (COLO 205): 1.89 µM (inactive)
- GI50 (HCT-15): 15.3 µM
- GI50 (IGROV-1): 4.66 µM (inactive)
- GI50 (A549): 4.17 µM (inactive)
- GI50 (NCI-H460): 4.36 µM (inactive)
- GI50 (HT-29): 4.14 µM (inactive)
- GI50 (M19-MEL): 4.57 µM (inactive)
- GI50 (UACC-62): 4.31 µM (inactive)
- GI50 (KM-20L2): 4.29 µM (inactive)
- GI50 (LOX IMVI): 3.53 µM (inactive)
- GI50 (EKVX): 21.6 µM (inactive)
- GI50 (SF-539): 4.09 µM (inactive)
- GI50 (NCI-H23): 3.14 µM (inactive)
- GI50 (HL-60): 1.98 µM (inactive)
- GI50 (LXFL 529): 2.77 µM (inactive)
- GI50 (CAKI-1): 16.2 µM (inactive)
- GI50 (SF-268): 5.19 µM (inactive)
- GI50 (SK-MEL-28): 8.22 µM (inactive)
- GI50 (NCI-H226): 5.85 µM (inactive)
- GI50 (RXF 393): 5.61 µM (inactive)
- GI50 (Malme-3M): 5.01 µM (inactive)
- GI50 (KM12): 3.81 µM (inactive)
- GI50 (SK-OV-3): 3.95 µM (inactive)
- GI50 (786-0): 4.16 µM (inactive)
- GI50 (TK-10): 7.96 µM (inactive)
- GI50 (K562): 2.47 µM (inactive)
- GI50 (HCT-116): 2.86 µM (inactive)
- GI50 (RXF 631): > 100 µM (inactive)
- GI50 (OVCAR-8): 3.56 µM (inactive)
- GI50 (DMS-114): 3.41 µM (inactive)
- GI50 (HOP-92): 1.65 µM (inactive)
- GI50 (RPMI-8226): 2.24 µM (inactive)
- GI50 (ACHN): 7.08 µM (inactive)
- GI50 (SW-620): 4.29 µM (inactive)
- GI50 (SK-MEL-5): 2.81 µM (inactive)
- GI50 (OVCAR-3): 2.61 µM (inactive)
- GI50 (OVCAR-5): 18.2 µM (inactive)

Compound: O=S(=O)(CF)OCCCCOS(=O)(=O)CF
- GI50 (SNB-19): 95.3 µM (inactive)
- GI50 (NCI-H522): > 100 µM (inactive)
- GI50 (UO-31): > 100 µM (inactive)
- GI50 (SN12C): > 100 µM (inactive)
- GI50 (SNB-75): 27.7 µM (inactive)
- GI50 (DMS-273): 75.9 µM (inactive)
- GI50 (CCRF-CEM): 32.2 µM (inactive)
- GI50 (M14): > 100 µM (inactive)
- GI50 (HOP-18): > 100 µM (inactive)
- GI50 (U-251): > 100 µM (inactive)
- GI50 (SK-MEL-2): > 100 µM (inactive)
- GI50 (SF-295): > 100 µM (inactive)
- GI50 (A498): > 100 µM (inactive)
- GI50 (COLO 205): > 100 µM (inactive)
- GI50 (HCT-15): > 100 µM
- GI50 (IGROV-1): > 100 µM (inactive)
- GI50 (NCI-H460): 23.8 µM (inactive)
- GI50 (HT-29): > 100 µM (inactive)
- GI50 (M19-MEL): > 100 µM (inactive)
- GI50 (UACC-62): > 100 µM (inactive)
- GI50 (KM-20L2): > 100 µM (inactive)
- GI50 (LOX IMVI): 97.1 µM (inactive)
- GI50 (EKVX): > 100 µM (inactive)
- GI50 (SF-539): > 100 µM (inactive)
- GI50 (NCI-H23): 97.9 µM (inactive)
- GI50 (HL-60): 13.2 µM (inactive)
- GI50 (LXFL 529): > 100 µM (inactive)
- GI50 (CAKI-1): > 100 µM (inactive)
- GI50 (SF-268): > 100 µM (inactive)
- GI50 (SK-MEL-28): > 100 µM (inactive)
- GI50 (NCI-H226): > 100 µM (inactive)
- GI50 (Malme-3M): > 100 µM (inactive)
- GI50 (SK-OV-3): > 100 µM (inactive)
- GI50 (TK-10): > 100 µM (inactive)
- GI50 (SNB-78): > 100 µM (inactive)
- GI50 (K562): > 100 µM (inactive)
- GI50 (HCT-116): > 100 µM (inactive)
- GI50 (RXF 631): > 100 µM (inactive)
- GI50 (OVCAR-8): > 100 µM (inactive)
- GI50 (DMS-114): 74 µM (inactive)
- GI50 (HOP-92): 0.701 µM (active)
- GI50 (MOLT-4): 23.8 µM (inactive)
- GI50 (RPMI-8226): > 100 µM (inactive)
- GI50 (ACHN): 20.4 µM (inactive)
- GI50 (SW-620): > 100 µM (inactive)
- GI50 (SK-MEL-5): > 100 µM (inactive)
- GI50 (OVCAR-3): > 100 µM (inactive)
